Measurements from patent US9150546B2, “Triazine derivative and pharmaceutical composition comprising the same” (SHIONOGI & CO., LTD., priority 2009, dated 2015).

Biological target: human P2X3 receptor (Homo sapiens (Human), UniProt P56373)
Experiment: P2X3 receptor inhibition, ATP-evoked Fluo-3 fluorescence (FDSS 3000)
Format: cell-based
Details: C6BU-1 cell transfected with human P2X3 receptor gene

Sequence of human P2X3 receptor (P56373 whole entry): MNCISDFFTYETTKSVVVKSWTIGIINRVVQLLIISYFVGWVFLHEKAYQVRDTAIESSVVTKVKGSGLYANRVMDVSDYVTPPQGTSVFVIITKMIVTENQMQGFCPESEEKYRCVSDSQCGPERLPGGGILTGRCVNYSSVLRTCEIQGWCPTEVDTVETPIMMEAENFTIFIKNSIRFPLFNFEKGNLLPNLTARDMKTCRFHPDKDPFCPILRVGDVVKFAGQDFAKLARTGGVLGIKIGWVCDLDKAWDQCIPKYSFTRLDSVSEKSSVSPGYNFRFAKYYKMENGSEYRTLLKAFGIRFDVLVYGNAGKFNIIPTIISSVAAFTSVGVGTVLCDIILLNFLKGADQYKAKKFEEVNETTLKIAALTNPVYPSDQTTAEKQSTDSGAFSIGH

| SMILES | IC50 [nM] |
| --- | --- |
| CC(C)Oc1ccc(/N=c2\[nH]c(=O)n(C[C@H](C)C(=O)O)c(=O)n2Cc2ccc(Cl)cc2)cc1F [I-456] | 8 |
| Cc1nc2ccc(/N=c3\[nH]c(=O)n(CC(C)(C)C(=O)O)c(=O)n3Cc3ccc(Cl)cc3)cc2o1 [I-496] | 125 |
| CC(C)n1c(=O)nc(Nc2cccc(C(F)(F)F)c2)n(Cc2ccc(Cl)cn2)c1=O [I-162] | 379 |
| COC(=O)C(C)(C)Cn1c(=O)[nH]/c(=N\c2ccc(OC(C)C)c(Cl)c2)n(CC2CCCC2)c1=O [I-550] | 33 |
| CC(C)Oc1ccc(/N=c2\[nH]c(=O)n(CC(C)(C)C(=O)O)c(=O)n2CC2CCCCC2)cc1Cl [I-551] | 34 |
| COC(=O)CCn1c(=O)[nH]/c(=N\c2ccc(OC(C)C)c(F)c2)n(Cc2ccc(C)cc2)c1=O [I-409] | 12 |
| COC(=O)C[C@@H](C)n1c(=O)[nH]/c(=N\c2ccc(OC(C)C)c(C)c2)n(Cc2ccc(Cl)cc2)c1=O [I-557] | 19 |
| CC(C)(Cn1c(=O)[nH]/c(=N\c2ccc(O)c(Cl)c2)n(Cc2ccc(Cl)cc2)c1=O)C(=O)O [I-429] | 779 |
| COC(=O)C(C)(C)Cn1c(=O)[nH]/c(=N\c2ccc3oc(C)cc3c2)n(Cc2ccc(Cl)cc2)c1=O [I-489] | 10 |
| CC(C)Oc1ccc(/N=c2\[nH]c(=O)n(CCC(C)(C)C(=O)OCc3ccccc3)c(=O)n2Cc2ccc(Cl)cc2)cc1Cl [I-407] | 27 |
| O=c1nc(Nc2ccc(OC3CCCC3)cc2)n(Cc2ccc(Cl)cc2)c(=O)n1CCO [I-322] | 112 |
| CSc1cccc(Nc2nc(=O)n(C(C)C)c(=O)n2Cc2ccc(C)cc2)c1 [I-118] | 231 |
| COC(=O)C(C)(C)Cn1c(=O)[nH]/c(=N\c2ccc(OC(C)C)c(Cl)c2)n(Cc2ccc(Cl)cc2)c1=O [I-399] | 8 |
| COCCn1c(=O)nc(Nc2ccc(OC(C)C)c(F)c2)n(Cc2ccc(Cl)cc2)c1=O [I-280] | 30 |
| CCOC(=O)C1(Cn2c(=O)[nH]/c(=N\c3ccc(OC(C)C)c(F)c3)n(Cc3ccc(Cl)cc3)c2=O)CC1 [I-422] | 6 |
| CC(C)Oc1ccc(/N=c2\[nH]c(=O)n(CC(C)(C)C(=O)O)c(=O)n2Cc2ccc(Cl)cc2)cc1Cl [I-401] | 7 |
| Cc1cc(/N=c2\[nH]c(=O)n(CCCC(=O)O)c(=O)n2Cc2ccc(Cl)cc2)ccc1OC(C)C [I-503] | 50 |
| CCOc1ccc(/N=c2\[nH]c(=O)n(C[C@@H](C)C(=O)O)c(=O)n2Cc2ccc(Cl)cc2)cc1Cl [I-487] | 27 |
| CC(C)Oc1ccc(Nc2nc(=O)n(CC3(CO)CC3)c(=O)n2Cc2ccc(Cl)cc2)cc1F [I-335] | 7 |

| SMILES | IC50 [nM] |
| --- | --- |
| CC(C)(Cn1c(=O)[nH]/c(=N\c2ccc3[nH]ccc3c2)n(Cc2ccc(Cl)cc2)c1=O)C(=O)O [I-478] | 629 |
| CC(C)Oc1ccc(/N=c2\[nH]c(=O)n([C@@H](C)CC(=O)O)c(=O)n2Cc2ccc(Cl)cc2)cc1Cl [I-526] | 24 |
| CC(C)Oc1ccc(/N=c2\[nH]c(=O)n(C[C@H](C)C(=O)O)c(=O)n2Cc2ccc(Cl)cc2)cc1 [I-537] | 19 |
| COC(=O)C[C@H](C)n1c(=O)[nH]/c(=N\c2ccc(OC(C)C)c(Cl)c2)n(Cc2ccc(Cl)cc2)c1=O [I-522] | 29 |
| O=c1nc(Nc2ccc(N3CCCCC3)cc2)n(Cc2ccc(Cl)cc2)c(=O)n1CCO [I-311] | 142 |
| CCOc1ccc(/N=c2\[nH]c(=O)n(CC(C)(C)C(=O)OC)c(=O)n2Cc2ccc(Cl)cc2)cc1Cl [I-441] | 11 |
| CC(C)Oc1ccc(Nc2nc(=O)n(C(F)F)c(=O)n2Cc2ccc(Cl)cc2)cc1F [I-310] | 389 |
| O=c1nc(Nc2ccc(OC(F)F)cc2)n(Cc2ccc(Cl)cc2)c(=O)n1CC(CO)CO [I-370] | 154 |
| CCn1c(=O)nc(Nc2cccc(C(F)(F)F)c2)n(Cc2ccc(F)cc2)c1=O [I-138] | 619 |
| O=c1nc(Nc2ccc(F)c(F)c2)n(Cc2ccc(Cl)cc2)c(=O)n1CCO [I-316] | 712 |
| COCCOc1ccc(Nc2nc(=O)n(C(C)C)c(=O)n2Cc2ccc(Cl)cc2)cc1Cl [I-237] | 230 |
| Cc1ccc(Cn2c(=O)n(CC(C)(C)C(=O)O)c(=O)[nH]/c2=N\c2ccc(OC(C)C)c(F)c2)cc1F [I-413] | 99 |
| Cc1ccc(Cn2c(Nc3cccc(C(F)(F)F)c3)nc(=O)n(C(C)(C)C)c2=O)cc1 [I-097] | 505 |
| CC(C)Oc1ccc(Nc2nc(=O)n(C(C)C)c(=O)n2Cc2ccc(F)cc2)cc1 [I-133] | 339 |
| CCOc1ccc(Nc2nc(=O)n(CCO)c(=O)n2Cc2ccc(Cl)cc2)cc1 [I-307] | 250 |
| CC(C)Oc1ccc(Nc2nc(=O)n(CC(N)=O)c(=O)n2Cc2ccc(Cl)cc2)cc1F [I-295] | 46 |
| CC(C)Oc1ccc(/N=c2\[nH]c(=O)n(C[C@@H](C)C(=O)O)c(=O)n2Cc2ccc(Cl)cc2)cc1Cl [I-460] | 16 |
| CCn1ccc2cc(/N=c3\[nH]c(=O)n(CC(C)(C)C(=O)OC)c(=O)n3Cc3ccc(Cl)cc3)ccc21 [I-492] | 102 |
| CC(C)n1c(=O)nc(Nc2ccc(Oc3ccccc3)cc2)n(Cc2ccc(F)cc2)c1=O [I-128] | 840 |

| SMILES | IC50 [nM] |
| --- | --- |
| CCOC(=O)CCn1c(=O)nc(Nc2ccc(OC(C)C)c(Cl)c2)n(CC2CCCCC2)c1=O [I-380] | 34 |
| COC(=O)[C@@H](C)Cn1c(=O)[nH]/c(=N\c2ccc3oc(C)cc3c2)n(Cc2ccc(Cl)cc2)c1=O [I-534] | 18 |
| Cc1ccc(Cn2c(=O)n(C[C@H](C)C(=O)O)c(=O)[nH]/c2=N\c2ccc(OC(C)C)c(Cl)c2)cc1 [I-518] | 7 |
| O=c1nc(Nc2ccc(Cl)c(Cl)c2)n(Cc2ccc(Cl)cc2)c(=O)n1CCO [I-373] | 185 |
| COC(=O)C(C)(C)Cn1c(=O)[nH]/c(=N\c2ccc(CN(C)C)c(Cl)c2)n(Cc2ccc(Cl)cc2)c1=O [I-490] | 46 |
| COC(=O)C(C)(C)Cn1c(=O)[nH]/c(=N\c2ccc3[nH]ccc3c2)n(Cc2ccc(Cl)cc2)c1=O [I-470] | 80 |
| Cc1ccc(Cn2c(Nc3cccc(Cl)c3)nc(=O)n(C(C)C)c2=O)cc1 [I-117] | 387 |
| CC(C)Oc1ccc(/N=c2\[nH]c(=O)n(CCC(=O)NCC(N)=O)c(=O)n2Cc2ccc(Cl)cc2)cc1F [I-440] | 55 |
| CC(C)Cc1ccc(Nc2nc(=O)n(CC(CO)CO)c(=O)n2Cc2ccc(Cl)cc2)cc1 [I-366] | 46 |
| CC(C)Oc1ccc(Nc2nc(=O)n(CCO)c(=O)n2Cc2ccc(F)cc2)cc1F [I-333] | 192 |
| CSc1ccc(/N=c2\[nH]c(=O)n(CC(C)(C)C(=O)O)c(=O)n2Cc2ccc(Cl)cc2)cc1 [I-544] | 601 |
| COC(=O)C(C)(C)Cn1c(=O)[nH]/c(=N\c2ccc(OC(C)C)c(C)c2)n(Cc2ccc(Cl)cc2)c1=O [I-431] | 4 |
| CCNC(=O)NCCn1c(=O)nc(Nc2ccc(OC(C)C)c(F)c2)n(Cc2ccc(Cl)cc2)c1=O [I-389] | 64 |
| N#CCOc1ccc(Nc2nc(=O)n(CCO)c(=O)n2Cc2ccc(Cl)cc2)cc1 [I-330] | 594 |
| O=c1nc(Nc2ccc(OC(F)F)cc2)n(Cc2ccc(Cl)cc2)c(=O)n1CCO [I-329] | 266 |
| CC(C)Oc1ccc(Nc2nc(=O)n(Cc3ccccn3)c(=O)n2Cc2ccc(Cl)cc2)cc1F [I-300] | 25 |
| CNC(=O)NCCn1c(=O)nc(Nc2ccc(OC(C)C)c(F)c2)n(Cc2ccc(Cl)cc2)c1=O [I-387] | 37 |
| Cc1cc(/N=c2\[nH]c(=O)n([C@@H](C)CC(=O)O)c(=O)n2Cc2ccc(Cl)cc2)ccc1OC(C)C [I-528] | 53 |
